Laboratory results from patent US12269902B2, “Peptide compounds and peptide conjugates for the treatment of cancer through receptor-mediated chemotherapy” (TRANSFERT PLUS, S.E.C., priority 2015, dated 2025).
Non-standard residues stand in square brackets, D forms with d. Residues, ends and D or L forms follow the SMILES beside them. *: point of attachment. X1 = CC(=O)O[C@@]12CO[C@@H]1C[C@H](O)[C@@]1(C)C(=O)[C@H](O)C3=C(C)[C@@H](OC(=O)[C@H](OC(=O)CCC(=O)*)[C@@H](NC(=O)OC(C)(C)C)c4ccccc4)C[C@@](O)([C@@H](OC(=O)c4ccccc4)[C@H]21)C3(C)C; Nle = CCCC[C@H](N)C(=O)O

Key:
[1] = test system: ovarian (SKOV3 and ES-2) cancer cells; test: Cell migration assay by xCELLigence biosensor system, ovarian cancer cells; format: cell-based; settings: 2 hours incubation, 2 μM
Method: 15A. Cells were incubated for 2 hrs with increasing concentration of Doxorubicin or conjugated Doxorubicin (KBB106) and cell migration was performed. 15B. […] 15C. Progranulin (PGR), a sortilin ligand, also reversed the effect of the Doxorubicin conjugate (KBB106) on ovarian cancer cell (ES-2) migration.
This second cellular assay was also used to screen the different Katana-drug conjugates (FIG. 15). […] However, as shown in FIGS. 15B and 15C, when the cancer cells were incubated with conjugated Doxorubicin (KBB106) in the presence of a sortilin ligand (Neurotensin, Katana peptide or progranulin), the migratory effect of the Doxorubicin conjugate was reversed.
Experiments were carried out using the Real-Time Cell Analyser (RTCA) Dual-Plate (DP) Instrument, the xCELLigence system (Roche Diagnostics, QC). This system was used according to the instructions of the supplier. Then, cells (25 000 cells/well) were seeded in serum-free medium onto a CIM-Plates 16 (Roche diagnostics). […] After 30 min of adhesion, cell migration was monitored every 5 min for 8 h. The impedance value was measured by the RTCA DP Instrument and was expressed as an arbitrary unit called the Cell Index which reflecting the amount of migration-active cells. […]

[2] = test system: MDA-MB231 breast cancer cells; test: MDA-MB231 luciferase breast subcutaneous tumors (Docetaxel, KBA106); format: in vivo, mice
Method: 27A. Mice were implanted in the flank with MDA-MB231 breast cancer cells expressing luciferase. Tumor growth by luminescence was visualized using an in vivo imaging system from Carestream. Mice were treated with vehicle, Docetaxel (15 mg/kg/week) or KBA106 (50 mg/kg/week). Initial luminescence intensity was subtracted. 27B. […] No value was available (N/A) for the mice treated with the vehicle since all mice were then sacrificed because the size of their tumors reached the endpoint limit. 27C. Tumor luminescence results were expressed in terms of percentage of progression on D74 post-treatment compared to initial tumor luminescence. In the Docetaxel group, the tumor luminescence increased by 100% whereas in the KBA106 treated group the luminescence decreased by 100%.
Residual tumor burden was assessed in Docetaxel and Docetaxel conjugate treated mice (FIG. 27). Mice were implanted in the flank with MDA-MB231 breast cancer cells expressing luciferase. Tumor growth by luminescence was visualized using an in vivo imaging system from Carestream. Mice were treated with vehicle, Docetaxel (15 mg/kg/week) or KBA106 (50 mg/kg/week).

[3] = biological target: P-gp (MDR1) (Homo sapiens, UniProt P08183); test: Drug accumulation in MDCK-MDR1 cells with or without Cyclosporin A; settings: 50 nM, 1 hr, 37° C., CsA 10 μM
Method: 6A. […] 6B. MDCK-MDR1 cells were incubated with 50 nM of either [^14C]-Doxorubicin or [^125I]-Katana peptide-Doxorubicin conjugate (KBB106) for 1 hr at 37° C. in the presence or absence of CsA (10 μM). After the incubation, cells were washed and radioactivity accumulated in cells was quantified. The results were expressed in terms of uptake fmol/mg of protein.
In order to determine whether the anticancer drug-Katana-peptide conjugates could also be P-gp substrates, MDCK-transfected cells with human MDR1 were used (MDCK-MDR1).
Cells were washed three times with PBS and preincubated for 30 min at 37° C. in culture medium without serum with or without the P-gp inhibitor Cyclosporin A (10 μM). Radiolabelled molecules (50 nM) were then added for 60 min. The cells were rapidly washed three times with ice-cold PBS and then lysed in 500 µL of 0.1 M NaOH. The amount of radiolabelled molecules retained in the cells was counted by β-scintillation counting (Packard model 1900 TR). An aliquot of cell lysate was used in parallel to determine cellular protein concentration.

[4] = test system: SKOV3 cancer cells; test: SKOV3 luciferase subcutaneous xenograft tumour model (Docetaxel, KBA-105); settings: mice, Docetaxel 10 mg/kg/week, 3 treatments
Method: Mice were implanted in the flank with SKOV3 cancer cells. Tumor growth was monitored by luminescence using the Near Infrared imaging system from Carestream.
Results are expressed in terms of luminescence intensity as a function of post-treatment days.
To further evaluate the in vivo efficacy of the Katana-drug conjugate, SKOV3 cancer cells expressing luciferase were implanted in the mouse flank. […] Tumour imaging was performed on different days by injecting the luciferase substrate luciferin and by using the Xtreme imaging system from Carestream.
Luminescence was then quantified and plotted as a function of days after implantation (FIG. 23).
SKOV3 cancer cells (2.5×10^6 cells) expressing luciferase were implanted in the right flank of mice. Tumour growth was monitored using near infrared (NiR) imaging system from Carestream by injecting the luciferase substrate luciferin. […] Luminescence associated with tumour growth of SKOV3/Luc cancer cells was quantified as a function of post-treatment days with the instrument software.

[5] = Tissue distribution of radiolabeled compounds in mice; settings: iv bolus, equivalent dose of Docetaxel (Docetaxel 2.2, KBA105 5 mg/kg)
Method: CD-1 mice were injected with the radiolabeled conjugate at 5 mg/kg via iv bolus injections (21A) or […] of radiolabeled Docetaxel (21B). At the indicated times (1 h, 6 h, 24 h) mice were sacrificed and perfused with saline for 8 min. Tissues were then collected and radioactivity was measured. Results are expressed in terms of ng/g of tissue.
At the indicated times (1, 6 and 24 hours), whole body perfusion was performed for 8 min with saline at a flow rate of 8 ml/min after […] hours iv bolus injections.
After radiolabeling free iodine was remove. Mice were injected with Docetaxel-[^125I]-Katana peptide conjugate at 5 mg/kg. Plasma was collected at the indicated times. After 1, 2 and 24 hours some mice were perfused with saline, sacrificed and tissues were collected. Radioactivity in the plasma and tissues were measured in a radioactivity counter and results were calculated and expressed in terms of […] for the plasma or ng/g of tissues.

[6] = free Docetaxel; Assessment report for Docetaxel Teva, European Medicines Agency; cited from earlier work
[7] = test system: ES-2 ovarian cancer cells; test: [3H]-Thymidine incorporation cell proliferation assay, ES-2; format: cell-based; settings: ES-2 (Ovary)
Method: (§1) The effect of the Docetaxel-Katana peptide conjugate on various cell line proliferations was evaluated and compared to unconjugated Docetaxel (Table 4). IC50 values obtained for the Docetaxel-Katana peptide conjugate were very similar to those of Docetaxel in the cancer cells tested.
(§2) The phytochemical Curcumin, unconjugated and conjugated, was also tested on cancer cell proliferation (FIG. 28). Breast cancer cells (MDA-MB231) were incubated with increasing concentrations of KBC106 or curcumin. After 72 hrs, thymidine incorporation assay was performed to assess the anti-proliferative properties of both molecules. IC50 values were extracted from the anti-proliferative curves. […] Proliferation assay was also performed using different types of cancer cells (ovarian, breast, skin and colorectal cancer cells). IC50 values were calculated from the anti-proliferation curves. In all cases, the Curcumin conjugate (KBC106) had stronger anti-proliferative activity (9-100 fold) than unconjugated Curcumin, as shown in Table 6 below.
(§3) Cancer cells were cultured in 96-well white plates (Perkin Elmer). They were synchronized for 24 hours in serum-deprived medium. After incubation of cells with unconjugated drugs (docetaxel, cabazitaxel, doxorubicin) or with drug-Katana peptide conjugates for 2 or 3 days, all media was aspirated and cells were pulse-labeled for 4 hours at 37° C./[…]/5% CO2 with media containing 2.5 μCi/mL [methyl-3H] thymidine (Perkin Elmer). Cells were washed, fixed, and dried before addition of scintillation fluid (Microscint 0, Perkin Elmer). After 24 hours, cell-associated tritium was quantified by counting on a plate reader (TopCount, Perkin Elmer). Incorporated [3H] thymidine was plotted for each drug concentration.

[8] = test system: SK-MEL-28 skin cancer cells; test: [3H]-Thymidine incorporation cell proliferation assay, SK-MEL-28; format: cell-based; settings: Homo sapiens
Method: as §1, §2, §3

[9] = test system: A-375 skin cancer cells; test: [3H]-Thymidine incorporation cell proliferation assay, A-375; format: cell-based; settings: Homo sapiens
Method: as §1, §2, §3

[10] = test system: MDA-MB-231 breast cancer cells; test: cells; settings: Homo sapiens
Method: Breast cancer cells (MDA-MB231) were incubated with increasing concentrations of KBC106 or curcumin. After 72 hrs, thymidine incorporation assay was performed to assess the anti-proliferative properties of both molecules. IC50 values were extracted from the anti-proliferative curves.
as §2, with “curves.” for “curves. In all cases, the Curcumin conjugate (KBC106) had stronger anti-proliferative activity (9-100 fold) than unconjugated Curcumin, as shown in Table 6 below.”
as §3

[11] = test system: cancer cells; test: Apoptosis by fluorescence microscopy (alpha-tubulin, DAPI); format: cell-based; settings: fluorescent microscopy
Method: In FIG. 30, it was further evaluated whether the Curcumin conjugate (KBC106) induces cancer cell apoptosis. Cancer cells were incubated with KBC106 and curcumin. First column, uptake for both molecules can be monitored by fluorescent microscopy. Higher accumulation of fluorescence was detected for KBC1006 indicating a better cell internalization for the conjugate. Curcumin accumulation was barely visible in these cancer cells. […] In the third column, cell nucleus was labelled with the fluorescent dye DAPI.

[12] = test system: HCC-1569 breast cancer cells; test: cells; format: cell-based; settings: Homo sapiens, HCC1569; HCC-1569 (HER2+; Herceptin resistant); Table 6
Method: as §2, §3

[13] = test system: HT-29 colorectal cancer cells; test: cells; format: cell-based; settings: Homo sapiens, Table 6
Method: as §2, §3

[14] = test system: HCC-1954 breast cancer cells; test: cells; format: cell-based; settings: Homo sapiens, HCC1954; HCC-1954 (HER2+; Lapatinib resistant); Table 6
Method: as §2, §3

Sequence of P-gp (MDR1) (P08183 whole entry): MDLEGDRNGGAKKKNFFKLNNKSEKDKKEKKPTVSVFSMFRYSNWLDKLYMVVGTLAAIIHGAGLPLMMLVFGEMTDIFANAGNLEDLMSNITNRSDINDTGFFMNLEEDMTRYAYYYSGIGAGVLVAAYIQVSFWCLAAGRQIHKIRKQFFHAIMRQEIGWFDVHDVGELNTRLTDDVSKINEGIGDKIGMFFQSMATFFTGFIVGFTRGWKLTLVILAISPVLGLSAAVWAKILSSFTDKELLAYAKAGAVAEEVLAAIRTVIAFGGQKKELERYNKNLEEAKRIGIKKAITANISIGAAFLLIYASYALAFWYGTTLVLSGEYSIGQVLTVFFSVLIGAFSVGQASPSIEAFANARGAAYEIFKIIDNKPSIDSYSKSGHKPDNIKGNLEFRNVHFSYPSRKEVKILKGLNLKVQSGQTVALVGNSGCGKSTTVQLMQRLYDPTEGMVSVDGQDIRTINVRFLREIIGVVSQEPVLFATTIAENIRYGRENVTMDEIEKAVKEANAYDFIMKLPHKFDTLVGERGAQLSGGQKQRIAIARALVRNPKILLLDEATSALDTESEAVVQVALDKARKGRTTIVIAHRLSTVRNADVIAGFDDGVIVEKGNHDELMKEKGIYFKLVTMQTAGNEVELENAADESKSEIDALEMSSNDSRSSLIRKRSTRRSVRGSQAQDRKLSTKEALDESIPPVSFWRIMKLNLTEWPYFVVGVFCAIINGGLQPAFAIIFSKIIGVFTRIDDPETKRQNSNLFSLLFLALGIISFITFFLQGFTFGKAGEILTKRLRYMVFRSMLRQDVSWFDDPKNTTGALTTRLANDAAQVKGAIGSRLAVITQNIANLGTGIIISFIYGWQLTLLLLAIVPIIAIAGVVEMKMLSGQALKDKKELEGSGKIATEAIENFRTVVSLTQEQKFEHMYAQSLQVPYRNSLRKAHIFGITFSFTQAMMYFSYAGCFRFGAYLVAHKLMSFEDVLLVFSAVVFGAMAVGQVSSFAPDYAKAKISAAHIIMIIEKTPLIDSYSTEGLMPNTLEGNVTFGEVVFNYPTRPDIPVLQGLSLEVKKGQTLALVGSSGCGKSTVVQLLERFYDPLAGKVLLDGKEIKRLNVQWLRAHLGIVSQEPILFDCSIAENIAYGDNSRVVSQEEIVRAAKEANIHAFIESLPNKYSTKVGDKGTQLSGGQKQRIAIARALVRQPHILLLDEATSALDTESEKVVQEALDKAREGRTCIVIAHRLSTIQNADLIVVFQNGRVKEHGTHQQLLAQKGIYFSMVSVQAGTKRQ

## CCCC[C@H](NC(=O)[C@H](CC(N)=O)NC(=O)[C@H](CCCNC(=N)N)NC(=O)[C@@H](NC(=O)CNC(=O)[C@H](C)NC(=O)[C@H](CCCCNC(=O)CCC(=O)O[C@@H](C(=O)O[C@H]1C[C@@]2(O)[C@@H](OC(=O)c3ccccc3)[C@@H]3[C@]4(OC(C)=O)CO[C@@H]4C[C@H](O)[C@@]3(C)C(=O)[C@H](O)C(=C1C)C2(C)C)[C@@H](NC(=O)OC(C)(C)C)c1ccccc1)NC(=O)[C@H](C)NC(=O)[C@H](CCCNC(=N)N)NC(=O)[C@@H](NC(=O)CNC(C)=O)C(C)C)C(C)C)C(=O)N[C@@H](Cc1ccccc1)C(=O)N[C@@H](CCCCNC(=O)CCC(=O)O[C@@H](C(=O)O[C@H]1C[C@@]2(O)[C@@H](OC(=O)c3ccccc3)[C@@H]3[C@]4(OC(C)=O)CO[C@@H]4C[C@H](O)[C@@]3(C)C(=O)[C@H](O)C(=C1C)C2(C)C)[C@@H](NC(=O)OC(C)(C)C)c1ccccc1)C(=O)N[C@@H](CO)C(=O)N[C@@H](CCC(=O)O)C(=O)N[C@@H](CO)C(=O)N[C@@H](Cc1ccc(O)cc1)C(=O)O [KBA-106, Acetyl-GVRAK(docetaxel)AGVRN(Nle)FK(docetaxel)SESY] (Ac-GVRAK(X1)AGVRN[Nle]FK(X1)SESY-OH; C-terminus assumed)
[1]
  effect on cell migration: almost completely abolished the cellular capacity of these cells to migrate
[2]; D74 post-treatment, KBA106 50 mg/kg/week
  tumor luminescence decrease compared to initial tumor luminescence: 100%
[2]; Day 74 post-treatment, KBA106 50 mg/kg/week
  residual tumor burden (remaining luminescence): no luminescence was detectable

## CC(=O)O[C@@]12CO[C@@H]1C[C@H](O)[C@@]1(C)C(=O)[C@H](O)C3=C(C)[C@@H](OC(=O)[C@H](O)[C@@H](NC(=O)OC(C)(C)C)c4ccccc4)C[C@@](O)([C@@H](OC(=O)c4ccccc4)[C@H]21)C3(C)C [Docetaxel, docetaxel, reference compound]
[3]
  increase of accumulation in the presence of cyclosporin A: 2 fold
[4]
  body weight loss: ~20%
[5]; Brain
  Area under the curve (AUC1-24): 34 ng·h/mL
[5]; Heart
  Area under the curve (AUC1-24): 656 ng·h/mL
[5]; Kidney
  Area under the curve (AUC1-24): 1072 ng·h/mL
[5]; Liver
  Area under the curve (AUC1-24): 652 ng·h/mL
[5]; Lung
  Area under the curve (AUC1-24): 614 ng·h/mL
[5]; Mammary
  Area under the curve (AUC1-24): 823 ng·h/mL
[5]; Ovary
  Area under the curve (AUC1-24): 1523 ng·h/mL
[5]; Spleen
  Area under the curve (AUC1-24): 457 ng·h/mL
[6]
  plasma half-life reported in the literature: 1 h
[7]; Table 4, 2 or 3 days
  IC50: 0.0013 µM
[8]; SK-MEL-28 (Skin), Table 4, 2 or 3 days
  IC50: 0.00069 µM
[9]; A-375 (Skin), Table 4, 2 or 3 days
  IC50: 0.00092 µM
[10]; MDA-MB-231
  IC50: 0.00068 µM
[2]; D74 post-treatment, Docetaxel 15 mg/kg/week
  tumor luminescence increase compared to initial tumor luminescence: 100%

## COc1cc(/C=C/C(=O)CC(=O)/C=C/c2ccc(O)c(OC)c2)ccc1O [Curcumin, curcumin]
[11]
  induction of apoptosis (nucleus fragmentation, DAPI): does not
[7]; Table 6
  IC50: 14.4 µM
[8]; SK-MEL-28, Table 6
  IC50: 12.5 µM
[9]; A-375, Table 6
  IC50: 20.9 µM
[10]; MDA-MB-231, 72 h
  IC50: 13.4 µM
[12]
  IC50: 14.8 µM
[13]
  IC50: 51.3 µM
[14]
  IC50: 12 µM
